Where “and” joins values, the source holds several entries; their conditions need not be identical. Identical values can stand only once. Inconclusive results and toxic doses are left out. Rule as the data show it: active = T/C of 150% or more; inactive = T/C below 125%.
System: L1210 leukemia ip in BDF1 mice, survival T/C
Test: NCI In Vivo Anticancer Drug Screen. Data for tumor model L1210 Leukemia (intraperitoneal) in B6D2F1 (BDF1) mice
Conditions: endpoint: mean survival time, higher = longer survival
How it was run: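 Ratio derived from survival: compound-dosed mice over vehicle-dosed mice, all bearing a transplantable tumor.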

[1] = dose: 50.0 mg/kg/injection, schedule: Q01DX001 (ip), vehicle: saline
[2] = dose: 100.0 mg/kg/injection, schedule: Q01DX001 (ip), vehicle: saline
[3] = dose: 200.0 mg/kg/injection, schedule: Q01DX001 (ip), vehicle: saline
[4] = dose: 400.0 mg/kg/injection, schedule: Q01DX001 (ip), vehicle: saline
[5] = dose: 100.0 mg/kg/injection, schedule: Q04DX003 (ip), vehicle: saline with Tween-80
[6] = dose: 200.0 mg/kg/injection, schedule: Q04DX003 (ip), vehicle: saline with Tween-80
[7] = dose: 400.0 mg/kg/injection, schedule: Q04DX003 (ip), vehicle: saline with Tween-80
[8] = dose: 100.0 mg/kg/injection, schedule: Q01DX009 (ip), vehicle: saline with Tween-80
[9] = dose: 200.0 mg/kg/injection, schedule: Q01DX009 (ip), vehicle: saline with Tween-80
[10] = dose: 400.0 mg/kg/injection, schedule: Q01DX009 (ip), vehicle: saline with Tween-80
[11] = dose: 100.0 mg/kg/injection, schedule: Q01DX009 (ip), vehicle: Klucel (hydroxypropylcellulose) (HPC)
[12] = dose: 100.0 mg/kg/injection, schedule: Q04DX003 (ip), vehicle: Klucel (hydroxypropylcellulose) (HPC)
[13] = dose: 200.0 mg/kg/injection, schedule: Q01DX009 (ip), vehicle: Klucel (hydroxypropylcellulose) (HPC)
[14] = dose: 200.0 mg/kg/injection, schedule: Q04DX003 (ip), vehicle: Klucel (hydroxypropylcellulose) (HPC)
[15] = dose: 400.0 mg/kg/injection, schedule: Q04DX003 (ip), vehicle: Klucel (hydroxypropylcellulose) (HPC)
[16] = dose: 400.0 mg/kg/injection, schedule: Q01DX009 (ip), vehicle: Klucel (hydroxypropylcellulose) (HPC)
[17] = dose: 50.0 mg/kg/injection, schedule: Q04DX003 (ip), vehicle: saline
[18] = dose: 100.0 mg/kg/injection, schedule: Q04DX003 (ip), vehicle: saline
[19] = dose: 50.0 mg/kg/injection, schedule: Q01DX009 (ip), vehicle: saline with Tween-80
[20] = dose: 100.0 mg/kg/injection, schedule: Q01DX001 (ip), vehicle: carboxymethylcellulose (CMC)
[21] = dose: 200.0 mg/kg/injection, schedule: Q01DX001 (ip), vehicle: carboxymethylcellulose (CMC)
[22] = dose: 400.0 mg/kg/injection, schedule: Q01DX001 (ip), vehicle: carboxymethylcellulose (CMC)
[23] = dose: 100.0 mg/kg/injection, schedule: Q04DX002 (ip), vehicle: Klucel (hydroxypropylcellulose) (HPC)
[24] = dose: 200.0 mg/kg/injection, schedule: Q04DX002 (ip), vehicle: Klucel (hydroxypropylcellulose) (HPC)
[25] = dose: 400.0 mg/kg/injection, schedule: Q04DX002 (ip), vehicle: Klucel (hydroxypropylcellulose) (HPC)
[26] = dose: 100.0 mg/kg/injection, schedule: Q01DX009 (ip), vehicle: carboxymethylcellulose (CMC)
[27] = dose: 200.0 mg/kg/injection, schedule: Q01DX009 (ip), vehicle: carboxymethylcellulose (CMC)

Measured: T/C

O=[N+]([O-])c1cccc(Cl)c1/C=N/Nc1nnc(N/N=C/c2c(Cl)cccc2[N+](=O)[O-])c2ccccc12
inactive: [1] 96 % of control | [2] 96 % of control | [3] 98 % of control | [4] 98 % of control

Brc1n[nH]nc1Br
inactive: [5] 98 % of control | [6] 104 % of control | [7] 101 % of control

CC1C(C)(C)C12C=CC=C2 (stereo unspecified)
inactive: [2] 102 % of control | [3] 96 % of control | [4] 96 % of control

O=C(O)C1C2C=CC(C2)C1C(=O)O (stereo unspecified)
inactive: [8] 97 % of control | [9] 96 % of control | [10] 98 % of control

CCOC1(C(=O)O)CC(c2ccc(Cl)cc2)Nc2c(OC)ccc(OC)c21 (stereo unspecified)
inactive: [5] 98 % of control | [6] 93 % of control

Cc1cc(=O)c2cccc(C)c2[nH]1
inactive: [11] 95 % of control | [12] 95 % of control | [13] 90 % of control | [14] 98 % of control | [15] 98 % of control

O=C(Nc1ccc(C(=O)Nc2cccc(C3=NCCN3)c2)cc1)c1ccc(C2=NCCN2)cc1
inactive: dose: 1.88 mg/kg/injection, schedule: Q01DX Z (ip), vehicle: saline 89 % of control | dose: 3.75 mg/kg/injection, schedule: Q01DX Z (ip), vehicle: saline 104 % of control | dose: 7.5 mg/kg/injection, schedule: Q01DX Z (ip), vehicle: saline 102 % of control | dose: 15.0 mg/kg/injection, schedule: Q01DX Z (ip), vehicle: saline 124 % of control

ClC1(Cl)C2CCC3C(CCC21)C3(Cl)Cl (stereo unspecified)
inactive: [11] 100 % of control | [13] 107 % of control | [16] 107 % of control

CC(=O)/C(=C/c1ccccc1)N=P(c1ccccc1)(c1ccccc1)c1ccccc1
inactive: [17] 90 % of control | [2] 87 % of control | [18] 92 % of control | [3] 89 % of control | dose: 200.0 mg/kg/injection, schedule: Q04DX003 (ip), vehicle: saline 90 % of control

O=C(O)CNCC(=O)O
inactive: dose: 25.0 mg/kg/injection, schedule: Q01DX009 (ip), vehicle: saline 103 % of control | dose: 50.0 mg/kg/injection, schedule: Q01DX009 (ip), vehicle: saline 90 % of control | dose: 100.0 mg/kg/injection, schedule: Q01DX009 (ip), vehicle: saline 93 % of control and 95 % of control | [5] 105 % of control | [6] 101 % of control | [7] 105 % of control

O=C(Nc1ccc(Cl)c(Cl)c1)O/N=C\c1c(Cl)ccc([N+](=O)[O-])c1Cl
inactive: [2] 102 % of control | [3] 107 % of control | [4] 102 % of control

Cc1cccc(N=Cc2ccccc2O)c1
inactive: [19] 99 % of control | [20] 95 % of control | [8] 97 % of control | [21] 97 % of control | [9] 95 % of control | [22] 103 % of control

O=C(NO)Nc1ccccc1
inactive: dose: 50.0 mg/kg/injection, schedule: Q01DX Z (ip), vehicle: carboxymethylcellulose (CMC) 94 % of control | [8] 98 % of control | dose: 100.0 mg/kg/injection, schedule: Q01DX Z (ip), vehicle: carboxymethylcellulose (CMC) 95 % of control | [5] 95 % of control | dose: 150.0 mg/kg/injection, schedule: Q01DX Z (ip), vehicle: methylcellulose (MC) 112 % of control | [9] 109 % of control | [6] 96 % of control | dose: 230.0 mg/kg/injection, schedule: Q01DX Z (ip), vehicle: methylcellulose (MC) 97 % of control | [10] 98 % of control | [7] 106 % of control

Cc1ccc(NC(=O)c2ccc(Cl)cc2Cl)cc1Cl
inactive: [11] 96 % of control | [12] 104 % of control | [13] 91 % of control | [14] 97 % of control | [16] 94 % of control | [15] 95 % of control

O=C(OCc1ccccc1)c1cc(I)c(OCc2ccccc2)c(I)c1
inactive: [2] 98 % of control | [3] 98 % of control | [4] 98 % of control

COc1ccc(NC(=O)c2ccc(Cl)cc2Cl)cc1
inactive: [23] 111 % of control | [24] 104 % of control | [25] 101 % of control

COC(=O)C1C2C=CC(O2)C1C(=O)OC (stereo unspecified)
inactive: [26] 98 % of control | dose: 100.0 mg/kg/injection, schedule: Q01DX009 (ip), vehicle: other 101 % of control | [27] 102 % of control | dose: 200.0 mg/kg/injection, schedule: Q01DX009 (ip), vehicle: other 102 % of control | dose: 400.0 mg/kg/injection, schedule: Q01DX009 (ip), vehicle: carboxymethylcellulose (CMC) 96 % of control | dose: 400.0 mg/kg/injection, schedule: Q01DX009 (ip), vehicle: other 101 % of control

C#CC1=CCCC1
inactive: [2] 95 % of control | [3] 100 % of control | [4] 95 % of control

C(=NC1CCCCC1)=NC1CCCCC1
inactive: dose: 2.5 mg/kg/injection, schedule: Q04DX003 (ip), vehicle: Klucel (hydroxypropylcellulose) (HPC) 105 % of control | dose: 5.0 mg/kg/injection, schedule: Q04DX003 (ip), vehicle: Klucel (hydroxypropylcellulose) (HPC) 105 % of control | dose: 10.0 mg/kg/injection, schedule: Q04DX003 (ip), vehicle: Klucel (hydroxypropylcellulose) (HPC) 106 % of control

CSc1ccc(OC(=O)Nc2ccc(Cl)cc2)cc1C
inactive: [20] 89 % of control | [26] 97 % of control and 100 % of control | [23] 103 % of control | dose: 100.0 mg/kg/injection, schedule: Q04DX002 (ip), vehicle: carboxymethylcellulose (CMC) 106 % of control and 108 % of control | [21] 102 % of control | [27] 93 % of control and 97 % of control | [24] 98 % of control | dose: 200.0 mg/kg/injection, schedule: Q04DX002 (ip), vehicle: carboxymethylcellulose (CMC) 94 % of control and 108 % of control | [22] 93 % of control | [25] 92 % of control | dose: 400.0 mg/kg/injection, schedule: Q04DX002 (ip), vehicle: carboxymethylcellulose (CMC) 95 % of control and 104 % of control

Oc1c(Br)cc(C(c2cc(Br)c(O)c(Br)c2)c2ccccn2)cc1Br
inactive: [12] 104 % of control | [14] 100 % of control | [15] 104 % of control

Cc1cccc(C[As](C)(=O)O)c1
inactive: dose: 25.0 mg/kg/injection, schedule: Q04DX003 (ip), vehicle: saline 94 % of control | [17] 98 % of control | [18] 100 % of control and 103 % of control

Cc1cccc(C)c1NC(=O)OCCSc1ccc(Cl)cc1
inactive: [19] 115 % of control | [8] 96 % of control | [9] 93 % of control

CCOC(=O)c1cnc(C)nc1NCc1ccccc1
inactive: dose: 100.0 mg/kg/injection, schedule: Q01DX001 (ip), vehicle: Klucel (hydroxypropylcellulose) (HPC) 101 % of control | dose: 200.0 mg/kg/injection, schedule: Q01DX001 (ip), vehicle: Klucel (hydroxypropylcellulose) (HPC) 103 % of control | dose: 400.0 mg/kg/injection, schedule: Q01DX001 (ip), vehicle: Klucel (hydroxypropylcellulose) (HPC) 113 % of control

O=[N+]([O-])c1ccc2nncn2c1
inactive: [1] 91 % of control | [2] 97 % of control | [3] 103 % of control | [4] 101 % of control

Cc1cc(Oc2nccnc2C)cc(C)c1N(C)C
inactive: [12] 101 % of control | [14] 94 % of control | [15] 94 % of control
